{"source": "patent US9259409B2", "about": "“Compositions comprising a prostaglandin for treating neuropsychiatric conditions” (Inceptum Research & Therapeutics, Inc., priority 2011, dated 2016)", "key": {"[1]": {"system": "CREB transcription factor", "experiment": "CREB transcription factor activation (S133 phosphorylation) in HEK293T cells (Western blot)", "format": "cell-based, human", "settings": "10 μM, vs DMSO-treated cells", "experimental": "Human embryonic kidney 293T (HEK293T) cells, U87MG astrocytoma and the human oligodendrocyte cell line MO3-13 were grown in Dubelco Minimal Eagle Media (DMEM) (Invitrogen, Carlsbad, Calif., USA) supplemented with 5% heat inactivated fetal bovine serum. Cells were grown to 70% confluence prior to treatment. […] Cells were exposed to drug for 3 hours at 37° C. in a 5% CO2 incubator. U87MG cells were grown to 70% confluence prior to treatment. Cells were treated with either DMSO vehicle (NT) or individually with 1, 5 and 10 μM latanoprost in DMEM lacking fetal bovine serum. Cells were exposed to treatments for 6 hours at 37° C. in a 5% CO2 incubator. The human oligodendrocyte cell line MO3-13 was grown and differentiated according to the methods described in McLaurin et al. (McLaurin, J., Trudel, G. C., Shaw, I. T., Antel, J. P., and Cashman, N. R., J. Neurobiol., 26: 283-293, 1995). On the third day of serum starvation, cells were treated with either DMSO vehicle (NT) or individually with 1, 5 and 10 μM latanoprost. Cells were exposed to treatments for 6 hours at 37° C. in a 5% CO2 incubator. […]\nProtein concentrations were determined by the Peterson method (Peterson, Analyt. Biochem., 83: 346-356, 1977). […]"}, "β-catenin": {"system": "β-catenin", "experiment": "β-catenin stabilization in the brain of open field test mice (Western blot)", "format": "in vivo, mouse", "settings": "brains after open field test; relative to mice treated with saline; n=3", "experimental": "Following the open field test behavioral analysis of mice, the mice were euthanized and their brains were dissected and bifurcated along the longitudinal fissure. Brain samples from mice treated with vehicle (saline), latanoprost, or lithium were processed for β-catenin stabilization by extraction with hypotonic buffer. The levels of stabilized β-catenin were analyzed by Western blot, and the relative amounts of β-catenin (represented as the mean relative amount of three mice per group) were quantified."}, "DBA/2J mice": {"system": "DBA/2J mice", "experiment": "Open field test, amphetamine-stimulated activity mouse model of bipolar disorder", "format": "in vivo", "experimental": "DBA/2J strain mice (Jackson Laboratories, Bar Harbor, Me., USA) were obtained with an approximate starting age of 8 weeks and an average body weight of 25.9 g. Mice were acclimatized for at least three days prior to study commencement, and animals in poor condition were rejected during the acclimatization period. All mice were housed under identical conditions in animal rooms with HEPA-filtered air at a temperature of 70° F.+/−5° F. and a relative humidity of 50%+/−20%. Animal rooms maintained a minimum of 12 to 15 air changes per hour with a light/dark cycle of 12 hours on and 12 hours off with no twilight. Sterile Bed-O-Cobs® bedding was used and changed a minimum of once per week. […]\nAt the commencement of the study, sixty (60) mice were randomly divided into six (6) groups of ten (10) animals. […] During this time, distance traveled was automatically recorded using TopScan (Clever Sys, Reston, Va., USA) video tracking software.\nThe data herein indicate that PG and PG derivatives may be effective in treating neuropsychiatric conditions such as bipolar disorder. Therefore, we evaluated the efficacy of latanoprost in an open field model of bipolar disorder in mice. […]\nTotal distance traveled for each mouse over a 20-minute session was recorded using TopScan (Clever Sys, Reston, Va., USA) video tracking software. […]"}, "GSK-3": {"system": "GSK-3", "experiment": "Distalless (Dll) expression in Drosophila wing imaginal discs as assay of GSK-3 function", "format": "cell-based"}}, "note": "“Also recorded” adds a separate entry of the source."}
{"molecule": "CC(C)OC(=O)CCC/C=C\\C[C@@H]1[C@@H](CC[C@@H](O)CCc2ccccc2)[C@H](O)C[C@@H]1O", "note": "[latanoprost, propan-2-yl-(Z)-7-[(1R,2R,3R,5S)-3,5-dihydroxy-2-[(3R)-3-hydroxy-5-phenylpentyl]cyclopentyl]-hept-5-enoate]", "values": [{"measurement": "levels of S133 phosphorylated-CREB", "setting": "[1]", "value": "increased levels of 5133 phosphorylated-CREB"}, {"measurement": "levels of β-catenin in brain", "setting": "β-catenin", "value": "significantly increased levels of β-catenin"}, {"measurement": "amphetamine-stimulated locomotion (distance traveled)", "setting": "DBA/2J mice; final five minutes of 20-minute open field test, 0.5 mg/kg amphetamine, drug IP 1 hour prior to test, 0.5 mg/kg", "value": "significantly reduced; also recorded: significantly (P<0.05) attenuates"}, {"measurement": "activity in saline-treated mice", "setting": "DBA/2J mice; no amphetamine, compared among vehicle, latanoprost, lithium", "value": "No significant differences"}, {"measurement": "Dll expression in wing imaginal discs", "setting": "GSK-3; 20 μM, Dll lacZ, vs DMSO", "value": "increased Dll expression"}, {"measurement": "Dll activation (DLL protein levels in wing pouch)", "setting": "GSK-3; increasing doses 1 μM, 5 μM, 10 μM and 20 μM, vs DMSO control vehicle", "value": "significant activation of Dll"}]}
